From US20120245137A1 (Zalicus Pharmaceuticals Ltd., priority 2009, published 2012)
pIC50: −log10 of the molar value. Where two headings read alike, the source gives them in different places.

Tests used:
Format in all cases: cell-based
Human Cav 2.2 channels = Human Cav 2.2 channels (Homo sapiens, UniProt Q00975); experiment: Fluorescent assay for CaV2.2 channels using potassium depolarization (VIPR/FLIPR); conditions: FLIPR data; for CAv2.2 IC50 Ratio closed/inact.: ratio closed/inactivated IC50
Sequence of Human Cav 2.2 channels (Q00975 whole entry): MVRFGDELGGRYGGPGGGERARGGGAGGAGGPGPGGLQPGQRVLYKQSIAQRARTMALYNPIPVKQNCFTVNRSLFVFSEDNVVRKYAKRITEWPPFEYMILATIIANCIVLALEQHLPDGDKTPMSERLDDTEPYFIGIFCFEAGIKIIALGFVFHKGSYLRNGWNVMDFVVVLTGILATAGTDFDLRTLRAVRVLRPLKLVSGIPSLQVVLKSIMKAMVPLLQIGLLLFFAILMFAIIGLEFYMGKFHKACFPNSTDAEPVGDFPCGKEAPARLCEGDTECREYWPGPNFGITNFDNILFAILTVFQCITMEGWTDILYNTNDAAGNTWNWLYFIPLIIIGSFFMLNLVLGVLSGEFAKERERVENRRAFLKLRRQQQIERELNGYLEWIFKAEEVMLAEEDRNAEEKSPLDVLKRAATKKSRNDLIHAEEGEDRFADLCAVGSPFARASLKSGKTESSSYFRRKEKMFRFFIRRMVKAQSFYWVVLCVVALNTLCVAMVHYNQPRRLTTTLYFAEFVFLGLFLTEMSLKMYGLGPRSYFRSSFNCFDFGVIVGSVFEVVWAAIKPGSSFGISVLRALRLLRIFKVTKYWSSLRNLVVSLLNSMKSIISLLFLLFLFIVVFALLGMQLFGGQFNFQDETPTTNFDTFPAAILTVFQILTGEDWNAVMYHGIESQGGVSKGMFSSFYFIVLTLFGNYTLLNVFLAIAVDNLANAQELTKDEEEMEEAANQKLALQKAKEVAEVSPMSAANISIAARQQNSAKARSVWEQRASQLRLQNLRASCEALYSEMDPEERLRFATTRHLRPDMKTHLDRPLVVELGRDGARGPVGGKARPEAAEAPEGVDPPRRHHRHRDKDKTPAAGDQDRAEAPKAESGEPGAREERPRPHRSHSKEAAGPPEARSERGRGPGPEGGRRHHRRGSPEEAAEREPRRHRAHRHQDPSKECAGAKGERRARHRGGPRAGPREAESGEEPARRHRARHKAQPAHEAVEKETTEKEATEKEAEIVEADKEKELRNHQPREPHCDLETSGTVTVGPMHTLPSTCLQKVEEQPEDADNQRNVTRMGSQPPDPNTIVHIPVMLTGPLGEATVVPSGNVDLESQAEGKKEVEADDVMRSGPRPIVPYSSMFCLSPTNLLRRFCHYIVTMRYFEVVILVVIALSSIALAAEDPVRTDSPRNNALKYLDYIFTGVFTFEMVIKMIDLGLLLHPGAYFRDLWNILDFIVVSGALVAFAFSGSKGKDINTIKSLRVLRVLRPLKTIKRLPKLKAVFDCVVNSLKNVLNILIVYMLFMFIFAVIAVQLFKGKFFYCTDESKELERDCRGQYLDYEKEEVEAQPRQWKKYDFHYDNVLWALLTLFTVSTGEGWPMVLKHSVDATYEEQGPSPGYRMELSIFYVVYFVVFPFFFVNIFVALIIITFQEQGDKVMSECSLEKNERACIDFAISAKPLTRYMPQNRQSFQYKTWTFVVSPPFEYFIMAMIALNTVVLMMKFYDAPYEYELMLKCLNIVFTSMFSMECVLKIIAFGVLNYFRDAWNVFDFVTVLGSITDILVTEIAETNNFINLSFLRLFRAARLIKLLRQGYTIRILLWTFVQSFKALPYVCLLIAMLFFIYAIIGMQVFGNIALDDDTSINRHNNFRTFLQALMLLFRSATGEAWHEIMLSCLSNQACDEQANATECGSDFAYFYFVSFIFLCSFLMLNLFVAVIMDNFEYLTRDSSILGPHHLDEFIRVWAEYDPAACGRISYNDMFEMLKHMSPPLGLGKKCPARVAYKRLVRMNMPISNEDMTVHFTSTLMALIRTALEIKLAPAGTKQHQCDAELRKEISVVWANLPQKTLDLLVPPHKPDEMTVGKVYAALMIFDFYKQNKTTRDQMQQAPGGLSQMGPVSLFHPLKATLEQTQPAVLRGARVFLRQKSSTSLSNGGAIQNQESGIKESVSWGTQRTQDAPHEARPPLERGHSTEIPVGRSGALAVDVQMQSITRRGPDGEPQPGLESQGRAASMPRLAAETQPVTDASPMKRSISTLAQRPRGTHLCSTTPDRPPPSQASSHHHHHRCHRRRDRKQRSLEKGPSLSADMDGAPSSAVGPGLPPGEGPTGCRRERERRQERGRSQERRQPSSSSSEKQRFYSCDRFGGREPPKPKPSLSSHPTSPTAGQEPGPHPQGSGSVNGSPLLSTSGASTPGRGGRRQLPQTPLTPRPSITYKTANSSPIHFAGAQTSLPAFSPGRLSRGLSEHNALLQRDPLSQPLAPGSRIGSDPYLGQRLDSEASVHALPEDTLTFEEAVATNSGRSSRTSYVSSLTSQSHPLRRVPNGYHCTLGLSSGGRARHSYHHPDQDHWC
Sequence of Human Cav 2.2 channels (P54289 25-1103 partner): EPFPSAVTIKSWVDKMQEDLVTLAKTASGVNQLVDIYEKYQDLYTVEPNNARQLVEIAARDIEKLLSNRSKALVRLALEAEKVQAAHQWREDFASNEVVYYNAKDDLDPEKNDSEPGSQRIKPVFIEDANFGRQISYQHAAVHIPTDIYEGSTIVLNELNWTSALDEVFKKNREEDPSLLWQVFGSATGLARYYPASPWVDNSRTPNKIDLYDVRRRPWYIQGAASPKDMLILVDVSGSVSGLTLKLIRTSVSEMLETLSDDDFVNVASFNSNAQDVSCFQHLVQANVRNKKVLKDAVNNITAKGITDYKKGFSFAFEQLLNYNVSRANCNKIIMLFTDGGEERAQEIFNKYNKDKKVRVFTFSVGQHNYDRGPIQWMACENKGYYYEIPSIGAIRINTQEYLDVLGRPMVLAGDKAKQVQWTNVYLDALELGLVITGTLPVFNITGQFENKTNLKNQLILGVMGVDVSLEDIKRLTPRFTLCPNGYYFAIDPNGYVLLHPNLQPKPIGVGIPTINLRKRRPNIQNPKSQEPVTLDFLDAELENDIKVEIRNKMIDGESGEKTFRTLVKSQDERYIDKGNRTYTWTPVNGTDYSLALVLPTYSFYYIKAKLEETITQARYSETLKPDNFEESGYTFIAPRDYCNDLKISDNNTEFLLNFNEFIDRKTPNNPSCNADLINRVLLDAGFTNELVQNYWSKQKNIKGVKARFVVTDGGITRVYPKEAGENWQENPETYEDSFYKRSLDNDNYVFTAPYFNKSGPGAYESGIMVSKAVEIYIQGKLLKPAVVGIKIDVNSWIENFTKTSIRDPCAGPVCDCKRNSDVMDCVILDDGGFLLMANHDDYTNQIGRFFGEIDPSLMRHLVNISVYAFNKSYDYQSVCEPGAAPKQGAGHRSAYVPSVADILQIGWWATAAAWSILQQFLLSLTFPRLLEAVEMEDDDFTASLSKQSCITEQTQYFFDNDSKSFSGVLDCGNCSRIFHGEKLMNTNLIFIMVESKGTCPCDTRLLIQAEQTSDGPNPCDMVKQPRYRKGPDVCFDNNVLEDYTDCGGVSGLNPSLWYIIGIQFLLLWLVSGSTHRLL
Sequence of Human Cav 2.2 channels (P54284 whole entry partner): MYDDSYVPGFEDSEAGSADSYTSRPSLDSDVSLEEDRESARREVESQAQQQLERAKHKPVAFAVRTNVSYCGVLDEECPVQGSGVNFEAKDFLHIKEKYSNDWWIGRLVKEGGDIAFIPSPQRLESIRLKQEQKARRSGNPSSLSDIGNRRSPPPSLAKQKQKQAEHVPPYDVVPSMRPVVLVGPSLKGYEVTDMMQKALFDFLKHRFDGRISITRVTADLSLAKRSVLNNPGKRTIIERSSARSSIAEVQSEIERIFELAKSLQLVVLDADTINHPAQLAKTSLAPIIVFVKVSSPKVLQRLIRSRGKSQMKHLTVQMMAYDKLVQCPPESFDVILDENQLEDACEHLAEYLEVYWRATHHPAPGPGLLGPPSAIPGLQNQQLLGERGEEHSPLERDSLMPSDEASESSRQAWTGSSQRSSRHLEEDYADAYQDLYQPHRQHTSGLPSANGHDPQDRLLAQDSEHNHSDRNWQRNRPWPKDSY
Outline: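 HEK293 cells stably expressing human Cav2.2 with α2δ and β subunits plus Kir2.3 were loaded with fluo-4 and incubated 30 min at 25 °C with compound in 4, 12, 25 or 30 mM potassium buffer. Channels were opened with 70 mM potassium (final) and calcium influx was read by fluorescence (Ex 480/Em 535 nm).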

T-type calcium channel [1] = biological target: T-type calcium channel (Homo sapiens, UniProt O43497); experiment: T-type channel blocking, FLIPR data (Table 6); conditions: CAv3.1
Text: (§1) Another method, high-throughput spectrophotometric assay, utilizes loading of the cell lines with a fluorescent dye sensitive to intracellular calcium concentration and subsequent examination of the effects of compounds on the ability of depolarization by potassium chloride or other means to alter intracellular calcium levels.

T-type calcium channel [2] = biological target: T-type calcium channel (Homo sapiens, UniProt O95180); experiment: T-type channel blocking, FLIPR data (Table 6); conditions: for CAv3.2 IC50 Ratio closed/inact.: CAv3.2, ratio closed/inactivated IC50
Text: as §1

CAv1.2 = CAv1.2 (Homo sapiens, UniProt Q13936); experiment: FLIPR data, CAv1.2 channel blocking (Table 6); conditions: for CAv1.2 IC50 Ratio closed/inact.: ratio closed/inactivated IC50
[3] = closed state, read-out: CAv2.2 IC50 Closed
[4] = inactivated state, read-out: CAv2.2 IC50 Inact.
[5] = CAv3.2, closed state, read-out: CAv3.2 IC50 Closed
[6] = CAv3.2, inactivated state, read-out: CAv3.2 IC50 Inact.
[7] = closed state, read-out: CAv1.2 IC50 Closed
[8] = inactivated state, read-out: CAv1.2 IC50 Inact.

| SMILES | pIC50 (Human Cav 2.2 channels; [3]) | pIC50 (Human Cav 2.2 channels; [4]) | CAv2.2 IC50 Ratio closed/inact. (Human Cav 2.2 channels) | pIC50 (T-type calcium channel [1]) | pIC50 (T-type calcium channel [2]; [5]) | pIC50 (T-type calcium channel [2]; [6]) | CAv3.2 IC50 Ratio closed/inact. (T-type calcium channel [2]) | pIC50 (CAv1.2; [7]) | pIC50 (CAv1.2; [8]) | CAv1.2 IC50 Ratio closed/inact. (CAv1.2) |
| --- | --- | --- | --- | --- | --- | --- | --- | --- | --- | --- |
| CC(C)(C1CC(CNC(=O)c2ccc(Cl)c(OC(F)(F)F)c2)C1)S(=O)(=O)c1cccc(C(F)(F)F)c1 (centres unmarked) [Compound 621] | 5.74 | 6.82 | 12.2 | 5.83 | 5.82 | 6.70 | 7.7 | 5.47 | 6.62 | 14.1 |
| CC(C)([C@H]1C[C@H](NS(=O)(=O)c2ccc(C(F)(F)F)cc2Cl)C1)S(=O)(=O)c1cc(F)cc(C(F)(F)F)c1 [Compound 623] | 5.47 | 6.13 | 4.6 | 5.28 | ≤ 5.00 | 5.81 | 6.5 | 5.09 | 5.81 | 5.2 |
| CC(C)([C@H]1C[C@@H](NS(=O)(=O)c2ccc(OC(F)(F)F)cc2)C1)S(=O)(=O)c1cc(F)cc(C(F)(F)F)c1 [Compound 603] | 5.38 | 6.21 | 6.8 | 5.26 | ≤ 5.00 | 5.19 | 1.5 | 5.16 | 5.67 | 3.3 |
| CC(C)([C@H]1C[C@H](NC(=O)c2cc(C(F)(F)F)n[nH]2)C1)S(=O)(=O)c1cccc(OC(F)(F)F)c1 [Compound 632] | 5.24 | 6.34 | 12.4 | 5.03 | 6.24 | 5.82 | 0.4 | ≤ 5.00 | 5.48 | 3 |

Continued, in another order:

| pIC50 (Human Cav 2.2 channels; [3]) | pIC50 (Human Cav 2.2 channels; [4]) | CAv2.2 IC50 Ratio closed/inact. (Human Cav 2.2 channels) | pIC50 (T-type calcium channel [1]) | pIC50 (T-type calcium channel [2]; [5]) | pIC50 (T-type calcium channel [2]; [6]) | CAv3.2 IC50 Ratio closed/inact. (T-type calcium channel [2]) | SMILES | pIC50 (CAv1.2; [7]) | pIC50 (CAv1.2; [8]) | CAv1.2 IC50 Ratio closed/inact. (CAv1.2) |
| --- | --- | --- | --- | --- | --- | --- | --- | --- | --- | --- |
| 5.90 | 6.92 | 10.6 | 5.24 | 5.65 | 6.28 | 4.3 | Cn1nc(C(F)(F)F)cc1C(=O)N[C@H]1C[C@@H](CC(C)(C)S(=O)(=O)c2cccc(C(F)(F)F)c2)C1 [Compound 738] | 5.27 | 5.63 | 2.3 |
| 5.57 | – | 5.7 | 5.52 | 5.52 | – | 1.1 | O=C(NC[C@H]1C[C@H](S(=O)(=O)c2cccc(OC(F)(F)F)c2)C1)c1ccc(OCC(F)(F)F)nc1 [Compound 698] | 5.25 | 5.61 | 2.3 |
| 5.21 | 6.06 | 7.1 | 5.64 | 5.59 | 5.59 | 1 | CC(C)([C@H]1C[C@@H](NC(=O)c2cc(C(F)(F)F)n[nH]2)C1)S(=O)(=O)c1cccc(OC(F)(F)F)c1 [Compound 639] | 5.03 | 5.47 | 2.7 |
| 5.73 | 6.74 | 10.4 | 6.42 | 6.36 | – | – | CC(C)([C@H]1C[C@@H](CNC(=O)c2ccc(F)c(Cl)c2)C1)S(=O)(=O)c1cccc(C(F)(F)F)c1 [Compound 685] | 5.33 | 6.00 | 4.7 |
| 5.00 | 5.73 | 5.3 | 5.14 | 5.64 | 5.57 | 0.8 | O=S(=O)(c1cccc(OC(F)(F)F)c1)[C@H]1C[C@@H](CNc2ccnc(C(F)(F)F)n2)C1 [Compound 650] | 5.04 | 5.45 | 2.6 |
